In turn, `*/C(=C(\C#N)c1ccc(C(=O)OC2CCN(*)CC2)cc1)c1ccc(OC)cc1` (repeat unit) showed a glass transition temperature of 183.00 °C. Turning to `*C(=O)Oc1ccc(OC(=O)c2ccc3c(c2)C(=O)N(c2ccc(Oc4ccc(N5C(=O)c6ccc(*)cc6C5=O)cc4)cc2)C3=O)c(-c2ccccc2)c1` (repeat unit), the glass transition temperature came to 212.00 °C. Turning to `*C(=O)Oc1ccc(OC(=O)c2ccc3c(c2)C(=O)N(c2ccc(Oc4ccc(N5C(=O)c6ccc(*)cc6C5=O)cc4)cc2)C3=O)cc1` (repeat unit), the glass transition temperature stood at 270.00 °C. In the case of `*C(=O)Oc1ccc(OC(=O)c2ccc3c(c2)C(=O)N(c2ccc(Oc4ccc(Oc5ccc(N6C(=O)c7ccc(*)cc7C6=O)cc5)cc4)cc2)C3=O)cc1` (repeat unit) it was 230.00 °C; in that of `*C(=O)Oc1ccc(OCCCCCCCCCCCCOc2ccc(OC(=O)c3ccc4c(c3)C(=O)N(c3ccc(Cc5ccc(N6C(=O)c7ccc(*)cc7C6=O)cc5)cc3)C4=O)cc2)cc1` (repeat unit), 125.00 °C. For `*CCOCCOCCN1C(=O)c2ccc(C(=O)Oc3ccc(OC(=O)c4ccc5c(c4)C(=O)N(*)C5=O)c(-c4ccccc4)c3)cc2C1=O` (repeat unit), the glass transition temperature was 105.00 °C.

`*OC(=O)Oc1ccc(C(=O)Oc2ccc(OC(=O)OC3COC4C(*)COC34)cc2)cc1` (repeat unit) gave a glass transition temperature of 115.00 °C. In the case of `*OC(=O)Oc1ccc(S(=O)(=O)c2ccc(OC(=O)OC3CC4CC(*)CC(C3)O4)cc2)cc1` (repeat unit), the glass transition temperature was 184.00 °C.

`*OP(=O)(Oc1ccc(Br)cc1)Oc1ccc(S(=O)(=O)c2ccc(*)cc2)cc1` (repeat unit) displayed a glass transition temperature of 89.00 °C. Under `*OP(=O)(Oc1ccc(OC)cc1)Oc1ccc(S(=O)(=O)c2ccc(*)cc2)cc1` (repeat unit) stands 81.00 °C. In the case of `*OP(=O)(Oc1ccc(S(=O)(=O)c2ccc(*)cc2)cc1)OC1CCCCC1` (repeat unit) it was 120.00 °C; in that of `*OP(=O)(Oc1ccc([N+](=O)[O-])cc1)Oc1ccc(S(=O)(=O)c2ccc(*)cc2)cc1` (repeat unit), 114.00 °C. For the molecule `*O[Si](C)(Oc1ccc(*)cc1)c1ccccc1` (repeat unit), the glass transition temperature was 95.00 °C.

The molecule `*Oc1ccc(-c2ccc(Oc3ccc(Oc4cc(Oc5ccc(*)cc5)ccc4CCCCCC)cc3)c3ccccc23)c2ccccc12` (repeat unit) registered a glass transition temperature of 150.00 °C. In the case of `*Oc1ccc(-c2ccc(Oc3ccc(Oc4ccc(Oc5ccc(*)cc5)cc4)cc3)c3ccccc23)c2ccccc12` (repeat unit), the glass transition temperature is 147.00 °C. In the case of `*Oc1ccc(-c2ccc(Oc3ccc(Oc4cccc(Oc5ccc(*)cc5)c4C)cc3)c3ccccc23)c2ccccc12` (repeat unit) it was 156.00 °C; in that of `*Oc1ccc(C(C)(C)C)cc1Oc1ccc(S(=O)(=O)c2ccc(*)cc2)cc1` (repeat unit), 180.50 °C; in that of `*Oc1ccc(OC(=O)c2cc(OCCCCOCC3CCCN3c3ccc([N+](=O)[O-])cc3)c(C(*)=O)cc2OCCCCOCC2CCCN2c2ccc([N+](=O)[O-])cc2)cc1` (repeat unit), 68.00 °C. `*Oc1ccc(OC(=O)c2ccc(-c3ccc(C(*)=O)cc3)cc2-c2ccccc2)cc1` (repeat unit) had a glass transition temperature of 140.00 °C.

As for `*Oc1ccc(OC(=O)c2ccc(C(*)=O)cc2)cc1-c1cccc(C(F)(F)F)c1` (repeat unit), the glass transition temperature was found to be 155.80 °C. As for `*Oc1ccc(OC(=O)c2ccc(C(*)=O)cc2)cc1C(F)(F)F` (repeat unit), the glass transition temperature amounted to 159.30 °C. Under `*Oc1ccc(OC(=O)c2ccc(C(*)=O)cc2)cc1C1CC2CCC1C2` (repeat unit) stands 267.00 °C. In the case of `*Oc1ccc(OC(=O)c2ccc(C(*)=O)cc2Oc2ccc(Oc3ccccc3)cc2)cc1` (repeat unit) it was 83.00 °C. Under `*Oc1ccc(OC(=O)c2ccc(C(*)=O)cc2Oc2ccc3ccccc3c2)cc1` (repeat unit) stands 102.00 °C; under `*Oc1ccc(OC(=O)c2ccc(C(*)=O)cc2Oc2ccccc2)cc1` (repeat unit), 105.00 °C; under `*Oc1ccc(OC(=O)c2ccc(C(*)=O)cc2Sc2ccccc2)cc1` (repeat unit), 181.00 °C. On to `*Oc1ccc(OC(=O)c2ccc(C(*)=O)cc2Sc2ccccc2)cc1-c1ccccc1` (repeat unit), for which the glass transition temperature was 130.00 °C. As to `*Oc1ccc(OC(=O)c2ccc(OCCCCCCCCCCCCOc3ccc(C(*)=O)cc3)cc2)cc1S(=O)(=O)c1ccccc1` (repeat unit), the glass transition temperature is 82.70 °C. Under `*Oc1ccc(OC(=O)c2ccc(OCCCCCCOc3ccc(C(*)=O)cc3)cc2)cc1S(=O)(=O)c1ccccc1` (repeat unit) stands 105.50 °C; under `*Oc1ccc(OC(=O)c2cccc(C(*)=O)c2)cc1` (repeat unit), 186.00 °C; under `*Oc1ccc(Oc2ccc(/C=N/CCCCCC/N=C/c3ccc(*)cc3)cc2)cc1` (repeat unit), 111.00 °C. In the case of `*Oc1ccc(S(=O)(=O)c2ccc(Oc3c(C)cc(C(C)(C)c4cc(C)c(*)c(C)c4Br)c(Br)c3C)cc2)cc1` (repeat unit), the glass transition temperature was 275.40 °C. In turn, `*Oc1ccc(S(=O)(=O)c2ccc(Oc3cc(C)c(C(c4cc(C(C)C)c(*)cc4C)c4ccccc4C(=O)O)cc3C(C)C)cc2)cc1` (repeat unit) came in with a glass transition temperature of 240.00 °C. Molecule `*Oc1ccc(S(=O)(=O)c2ccc(Oc3ccc4c(=O)n5c6cc(Oc7ccc8c(c7)nc7c9ccc(*)c%10cccc(c(=O)n87)c%109)ccc6nc5c5cccc3c45)cc2)cc1` (repeat unit) yielded a glass transition temperature of 374.00 °C. In the case of `*Oc1ccc(S(=O)(=O)c2ccc3cc(S(=O)(=O)c4ccc(Oc5c(C)cc(-c6cc(C)c(*)c(C)c6C)c(C)c5C)cc4)ccc3c2)cc1` (repeat unit) it was 300.00 °C; in that of `*Oc1ccc2cc(Oc3ccc(C(=O)c4ccc(*)cc4)cc3)ccc2c1` (repeat unit), 247.00 °C; in that of `*Oc1cccc(Oc2ccc(C(=O)c3ccc(*)cc3)cc2)c1` (repeat unit), 125.00 °C. Under `*Oc1cccc(Oc2ccc(C(=O)c3ccc(P(=O)(c4ccccc4)c4ccc(C(=O)c5ccc(*)cc5)cc4)cc3)cc2)c1` (repeat unit) stands 201.00 °C; under `*c1cc(C(C)C)c(Oc2ccc(S(=O)(=O)c3ccc(Oc4cc(C)c(C5(*)OC(=O)c6ccccc65)cc4C(C)C)cc3)cc2)cc1C` (repeat unit), 230.00 °C. With `*c1ccc(C(=O)Oc2ccc(OC(=O)c3ccc(N4C(=O)CC(SCCOCCSC5CC(=O)N(*)C5=O)C4=O)cc3)cc2)cc1` (repeat unit), the glass transition temperature came out at 166.00 °C.

The molecule `*c1ccc(N2C(=O)c3ccc(Oc4ccc(Oc5ccc(P(=O)(c6ccccc6)c6ccc(Oc7ccc(Oc8ccc9c(c8)C(=O)N(*)C9=O)cc7)cc6)cc5)cc4)cc3C2=O)cc1` (repeat unit) registered a glass transition temperature of 220.00 °C. With `*c1ccc(Oc2ccc(-c3ccc(Oc4ccc(N5C(=O)c6ccc(Oc7ccc(Oc8ccc9c(c8)C(=O)N(*)C9=O)cc7)cc6C5=O)cc4)cc3)cc2)cc1` (repeat unit), the glass transition temperature came to 230.00 °C.

As to `*c1ccc(Oc2ccc(C(c3ccc(Oc4ccc(N5C(=O)c6ccc(Oc7ccc(Sc8ccc(Oc9ccc%10c(c9)C(=O)N(*)C%10=O)cc8)cc7)cc6C5=O)cc4)cc3)(C(F)(F)F)C(F)(F)F)cc2)cc1` (repeat unit), the glass transition temperature stood at 217.50 °C. Take `*c1ccc(Oc2ccc(N3C(=O)c4ccc(Oc5ccc(S(=O)(=O)c6ccc(Oc7ccc8c(c7)C(=O)N(*)C8=O)cc6)cc5)cc4C3=O)cc2)cc1` (repeat unit): the glass transition temperature was found to be 260.00 °C.

`*c1ccc(Oc2ccc(N3C(=O)c4ccc(Oc5ccc(Sc6ccc(Oc7ccc8c(c7)C(=O)N(*)C8=O)cc6)cc5)cc4C3=O)cc2)cc1` (repeat unit) came in with a glass transition temperature of 212.00 °C. `*c1ccc(Oc2ccc(N3C(=O)c4cccc(Oc5ccc(Oc6ccc(Oc7cccc8c7C(=O)N(*)C8=O)cc6)cc5)c4C3=O)cc2)cc1` (repeat unit) gave a glass transition temperature of 239.00 °C. In the case of `*c1ccc(Oc2ccc(Oc3ccc(N4C(=O)c5cccc(Oc6c(C)cc(Cc7cc(C)c(Oc8cccc9c8C(=O)N(*)C9=O)c(C)c7)cc6C)c5C4=O)c(C)c3)cc2)cc1C` (repeat unit) it was 238.00 °C; in that of `*c1ccc(Oc2ccc(Oc3ccc(N4C(=O)c5cccc(Oc6ccc(C(C)(C)c7ccc(Oc8cccc9c8C(=O)N(*)C9=O)cc7)cc6)c5C4=O)c(C)c3)cc2)cc1C` (repeat unit), 222.00 °C; in that of `*c1ccc(Oc2ccc(Sc3ccc(Oc4ccc(N5C(=O)c6ccc(Oc7ccc(Oc8ccc9c(c8)C(=O)N(*)C9=O)cc7)cc6C5=O)cc4)cc3)cc2)cc1` (repeat unit), 201.00 °C.

Molecule `*c1ccc(Oc2ccc(Sc3ccc(Oc4ccc(N5C(=O)c6ccc(Oc7ccc(Sc8ccc(Oc9ccc%10c(c9)C(=O)N(*)C%10=O)cc8)cc7)cc6C5=O)cc4)cc3)cc2)cc1` (repeat unit) came in with a glass transition temperature of 186.00 °C. Regarding `*c1ccc(Oc2cccc(Oc3ccc(N4C(=O)c5ccc(Oc6ccc(S(=O)(=O)c7ccc(Oc8ccc9c(c8)C(=O)N(*)C9=O)cc7)cc6)cc5C4=O)cc3)c2)cc1` (repeat unit), the glass transition temperature was determined as 219.00 °C. In the case of `*c1ccc(Oc2cccc(Oc3ccc(N4C(=O)c5cccc(Oc6ccc(C(=O)c7ccc(Oc8cccc9c8C(=O)N(*)C9=O)cc7)cc6)c5C4=O)cc3)c2)cc1` (repeat unit) it was 216.00 °C; in that of `*c1cccc(N2C(=O)c3ccc(Oc4ccc(Oc5ccc6c(c5)C(=O)N(*)C6=O)cc4)cc3C2=O)c1` (repeat unit), 255.00 °C. In the case of `*c1cccc(N2C(=O)c3cccc(Oc4ccc(C(=O)c5ccc(Oc6cccc7c6C(=O)N(*)C7=O)cc5)cc4)c3C2=O)c1` (repeat unit) it was 248.00 °C.

Values taken from the PolyMetriX glass transition set.
